Experimental data published in patent US12077503B2, “Substituted cyclic amides and their use as herbicides” (FMC CORPORATION, priority 2015, dated 2024).

Experiments:
Assay type in all cases: in vivo
[1] = tested on: wheat (Triticum aestivum); experiment: Test A postemergence; settings: Triticum aestivum, post-emergence, 240 h, Postemergence, read-out: Wheat plant response rating (0 to 100 scale); for plant injury at 125 g/ha: 125 g ai/ha, visual rating about 10 d after treatment; for plant injury at 31 g/ha: 31 g ai/ha, 0 is no effect, 100 is complete control
In short: (§1)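 In a loam soil and sand blend, planted seeds got a preemergence directed soil spray, and young plants at the one- to two-leaf stage, 2–10 cm high, got a postemergence application; ~10 d greenhouse hold; injury rated visually, 0 = none, 100 = complete control.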

[2] = tested on: ragweed (common ragweed, Ambrosia elatior); experiment: Test A postemergence; settings: Ambrosia artemisiifolia, post-emergence, 240 h, Postemergence, read-out: Ragweed plant response rating (0 to 100 scale); for pest or weed control at 125 g/ha: 125 g ai/ha, visual rating about 10 d after treatment; for pest or weed control at 31 g/ha: 31 g ai/ha, 0 is no effect, 100 is complete control
In short: as §1

[3] = tested on: blackgrass (Alopecurus myosuroides); experiment: Test A postemergence; settings: Alopecurus myosuroides, post-emergence, 240 h, Postemergence, read-out: Blackgrass plant response rating (0 to 100 scale); for pest or weed control at 125 g/ha: 125 g ai/ha, visual rating about 10 d after treatment; for pest or weed control at 31 g/ha: 31 g ai/ha, 0 is no effect, 100 is complete control
In short: as §1

[4] = tested on: barnyardgrass (Echinochloa crus-galli); experiment: Test A postemergence; settings: Echinochloa crus-galli, post-emergence, 240 h, Postemergence; for pest or weed control at 125 g/ha: 125 g ai/ha, visual rating about 10 d after treatment, read-out: Barnyardgrass plant response rating (0 to 100 scale, 0 no effect, 100 complete control); for pest or weed control at 31 g/ha: 31 g ai/ha, 0 is no effect, 100 is complete control, read-out: Barnyardgrass plant response rating (0 to 100 scale)
In short: as §1

[5] = tested on: giant foxtail (Setaria faberii); experiment: Test A postemergence; settings: Setaria faberi, post-emergence, 240 h, Postemergence, read-out: Foxtail, Giant plant response rating (0 to 100 scale); for pest or weed control at 125 g/ha: 125 g ai/ha, visual rating about 10 d after treatment; for pest or weed control at 31 g/ha: 31 g ai/ha, 0 is no effect, 100 is complete control
In short: as §1

[6] = tested on: ryegrass, Italian (Italian ryegrass, Lolium multiflorum); experiment: Test A postemergence; settings: Lolium multiflorum, post-emergence, 240 h, Postemergence, read-out: Ryegrass, Italian plant response rating (0 to 100 scale); for pest or weed control at 125 g/ha: 125 g ai/ha, visual rating about 10 d after treatment; for pest or weed control at 31 g/ha: 31 g ai/ha, 0 is no effect, 100 is complete control
In short: as §1

Kochia (Kochia scoparia) [7] = experiment: Test A postemergence; settings: Bassia scoparia, post-emergence, 240 h, Postemergence, read-out: Kochia plant response rating (0 to 100 scale); for pest or weed control at 125 g/ha: 125 g ai/ha, visual rating about 10 d after treatment; for pest or weed control at 31 g/ha: 31 g ai/ha, 0 is no effect, 100 is complete control
In short: as §1

[8] = tested on: pigweed (Amaranthus retroflexus); experiment: Test A postemergence; settings: Amaranthus retroflexus, post-emergence, 240 h, Postemergence, read-out: Pigweed plant response rating (0 to 100 scale); for pest or weed control at 125 g/ha: 125 g ai/ha, visual rating about 10 d after treatment; for pest or weed control at 31 g/ha: 31 g ai/ha, 0 is no effect, 100 is complete control
In short: as §1

corn (Zea mays) = experiment: Test A postemergence; settings: Zea mays, post-emergence, 240 h, Postemergence, read-out: Corn plant response rating (0 to 100 scale); for plant injury at 125 g/ha: 125 g ai/ha, visual rating about 10 d after treatment; for plant injury at 31 g/ha: 31 g ai/ha, 0 is no effect, 100 is complete control
In short: as §1

[9] = tested on: Galium (catchweed bedstraw, Galium aparine); experiment: Test A postemergence; settings: Galium, post-emergence, 240 h, Postemergence, read-out: Galium plant response rating (0 to 100 scale); for pest or weed control at 125 g/ha: 125 g ai/ha, visual rating about 10 d after treatment; for pest or weed control at 31 g/ha: 31 g ai/ha, 0 is no effect, 100 is complete control
In short: as §1

[10] = tested on: barnyardgrass (Echinochloa crus-galli); experiment: Test B flooded paddy test; settings: Echinochloa crus-galli, 250 g ai/ha, Flood; 0 to 100 scale where 0 is no effect and 100 is complete control; read-out: Barnyardgrass plant response rating
In short: (§2)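 Greenhouse paddy pots with 2-leaf stage plants received compound by direct addition to floodwater 3 cm deep, kept at that level. Scored visually at 13–15 d versus controls (0 no effect; 100 complete control).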

[11] = tested on: sedge, umbrella (small-flower umbrella sedge, Cyperus difformis); experiment: Test B flooded paddy test; settings: Cyperus difformis, 250 g ai/ha, Flood; 0 to 100 scale where 0 is no effect and 100 is complete control; read-out: Sedge, Umbrella plant response rating
In short: as §2

[12] = tested on: ducksalad (Heteranthera limosa); experiment: Test B flooded paddy test; settings: Heteranthera limosa, 250 g ai/ha, Flood; 0 to 100 scale where 0 is no effect and 100 is complete control; read-out: Ducksalad plant response rating
In short: as §2

rice (Oryra sativa) = experiment: Test B flooded paddy test; settings: Oryza sativa, 250 g ai/ha, Flood; 0 to 100 scale where 0 is no effect and 100 is complete control; read-out: Rice plant response rating
In short: as §2

[13] = tested on: ragweed (common ragweed, Ambrosia elatior); experiment: Test A preemergence; settings: Ambrosia artemisiifolia, pre-emergence, 240 h, 0 to 100 scale where 0 is no effect and 100 is complete control, read-out: Ragweed plant response rating; for pest or weed control at 31 g/ha: 31 g ai/ha, Preemergence; for pest or weed control at 125 g/ha: 125 g ai/ha, preemergence, visual injury rating, approximately 10 d
In short: as §1

[14] = tested on: barnyardgrass (Echinochloa crus-galli); experiment: Test A preemergence; settings: Echinochloa crus-galli, pre-emergence, 240 h, 0 to 100 scale where 0 is no effect and 100 is complete control, read-out: Barnyardgrass plant response rating; for pest or weed control at 31 g/ha: 31 g ai/ha, Preemergence; for pest or weed control at 125 g/ha: 125 g ai/ha, preemergence, visual injury rating, approximately 10 d
In short: as §1

[15] = tested on: giant foxtail (Setaria faberii); experiment: Test A preemergence; settings: Setaria faberi, pre-emergence, 240 h, 0 to 100 scale where 0 is no effect and 100 is complete control, read-out: Foxtail, Giant plant response rating; for pest or weed control at 31 g/ha: 31 g ai/ha, Preemergence; for pest or weed control at 125 g/ha: 125 g ai/ha, preemergence, visual injury rating, approximately 10 d
In short: as §1

[16] = tested on: ryegrass, Italian (Italian ryegrass, Lolium multiflorum); experiment: Test A preemergence; settings: Lolium multiflorum, pre-emergence, 240 h, 0 to 100 scale where 0 is no effect and 100 is complete control, read-out: Ryegrass, Italian plant response rating; for pest or weed control at 31 g/ha: 31 g ai/ha, Preemergence; for pest or weed control at 125 g/ha: 125 g ai/ha, preemergence, visual injury rating, approximately 10 d
In short: as §1

Kochia (Kochia scoparia) [17] = experiment: Test A preemergence; settings: Bassia scoparia, pre-emergence, 240 h, 0 to 100 scale where 0 is no effect and 100 is complete control, read-out: Kochia plant response rating; for pest or weed control at 31 g/ha: 31 g ai/ha, Preemergence; for pest or weed control at 125 g/ha: 125 g ai/ha, preemergence, visual injury rating, approximately 10 d
In short: as §1

[18] = tested on: pigweed (Amaranthus retroflexus); experiment: Test A preemergence; settings: Amaranthus retroflexus, pre-emergence, 240 h, 0 to 100 scale where 0 is no effect and 100 is complete control, read-out: Pigweed plant response rating; for pest or weed control at 31 g/ha: 31 g ai/ha, Preemergence; for pest or weed control at 125 g/ha: 125 g ai/ha, preemergence, visual injury rating, approximately 10 d

Compound	plant injury at 125 g/ha [1] [%]	plant injury at 31 g/ha [1] [%]	pest or weed control at 125 g/ha [2] [%]	pest or weed control at 31 g/ha [2] [%]	pest or weed control at 125 g/ha [3] [%]	pest or weed control at 31 g/ha [3] [%]	pest or weed control at 125 g/ha [4] [%]	pest or weed control at 31 g/ha [4] [%]	pest or weed control at 125 g/ha [5] [%]	pest or weed control at 31 g/ha [5] [%]	pest or weed control at 125 g/ha [6] [%]	pest or weed control at 31 g/ha [6] [%]	pest or weed control at 125 g/ha (Kochia (Kochia scoparia) [7]) [%]	pest or weed control at 31 g/ha (Kochia (Kochia scoparia) [7]) [%]	pest or weed control at 125 g/ha [8] [%]	pest or weed control at 31 g/ha [8] [%]	plant injury at 125 g/ha (corn (Zea mays)) [%]	plant injury at 31 g/ha (corn (Zea mays)) [%]	pest or weed control at 125 g/ha [9] [%]	pest or weed control at 31 g/ha [9] [%]	other results
O=C1NC[C@H](c2cccc(C(F)(F)F)c2)[C@H]1C(=O)Nc1ccccc1-n1cncn1 [Compound 1290]	0	0	0	0	0	0	0	0	0	0	0	0	0	0	0	0	0	0	0	0	pest or weed control at 250 g/ha [10]: 0%; pest or weed control at 250 g/ha [11]: 0%; pest or weed control at 250 g/ha [12]: 0%; pest or weed control at 250 g/ha (rice (Oryra sativa)): 10%; pest or weed control at 31 g/ha [13]: 0%; pest or weed control at 125 g/ha [13]: 0%; pest or weed control at 31 g/ha [14]: 0%; pest or weed control at 125 g/ha [14]: 0%; pest or weed control at 31 g/ha [15]: 0%; pest or weed control at 125 g/ha [15]: 0%; pest or weed control at 31 g/ha [16]: 0%; pest or weed control at 125 g/ha [16]: 0%; pest or weed control at 31 g/ha (Kochia (Kochia scoparia) [17]): 0%; pest or weed control at 125 g/ha (Kochia (Kochia scoparia) [17]): 0%; pest or weed control at 31 g/ha [18]: 0%; pest or weed control at 125 g/ha [18]: 0%
O=C(Nc1ccc(F)c(F)c1F)[C@H]1C(=O)N(CC(F)F)C[C@@H]1c1cccc(C(F)(F)F)c1 [Compound 1297]	0	0	0	0	0	0	20	0	20	0	0	0	0	0	0	0	0	0	0	0	pest or weed control at 250 g/ha [10]: 0%; pest or weed control at 250 g/ha [11]: 0%; pest or weed control at 250 g/ha [12]: 0%; pest or weed control at 250 g/ha (rice (Oryra sativa)): 30%; pest or weed control at 31 g/ha [13]: 0%; pest or weed control at 125 g/ha [13]: 0%; pest or weed control at 31 g/ha [14]: 20%; pest or weed control at 125 g/ha [14]: 20%; pest or weed control at 31 g/ha [15]: 0%; pest or weed control at 125 g/ha [15]: 80%; pest or weed control at 31 g/ha [16]: 0%; pest or weed control at 125 g/ha [16]: 0%; pest or weed control at 31 g/ha (Kochia (Kochia scoparia) [17]): 0%; pest or weed control at 125 g/ha (Kochia (Kochia scoparia) [17]): 0%; pest or weed control at 31 g/ha [18]: 0%; pest or weed control at 125 g/ha [18]: 0%
